Results taken from ChEMBL document CHEMBL1148423, “Estrogen receptor ligands. Part 5: The SAR of dihydrobenzoxathiins containing modified basic side chains” (Bioorg Med Chem Lett, 2004).

Experiments:
MCF7 = assay: Inhibition of MCF-7 cancer cell proliferation; assay type: functional, cell-based; conditions: Homo sapiens
Estrogen receptor = target: T1, Estrogen receptor (Homo sapiens, UniProt P03372)
T1 sequence (P03372 whole entry): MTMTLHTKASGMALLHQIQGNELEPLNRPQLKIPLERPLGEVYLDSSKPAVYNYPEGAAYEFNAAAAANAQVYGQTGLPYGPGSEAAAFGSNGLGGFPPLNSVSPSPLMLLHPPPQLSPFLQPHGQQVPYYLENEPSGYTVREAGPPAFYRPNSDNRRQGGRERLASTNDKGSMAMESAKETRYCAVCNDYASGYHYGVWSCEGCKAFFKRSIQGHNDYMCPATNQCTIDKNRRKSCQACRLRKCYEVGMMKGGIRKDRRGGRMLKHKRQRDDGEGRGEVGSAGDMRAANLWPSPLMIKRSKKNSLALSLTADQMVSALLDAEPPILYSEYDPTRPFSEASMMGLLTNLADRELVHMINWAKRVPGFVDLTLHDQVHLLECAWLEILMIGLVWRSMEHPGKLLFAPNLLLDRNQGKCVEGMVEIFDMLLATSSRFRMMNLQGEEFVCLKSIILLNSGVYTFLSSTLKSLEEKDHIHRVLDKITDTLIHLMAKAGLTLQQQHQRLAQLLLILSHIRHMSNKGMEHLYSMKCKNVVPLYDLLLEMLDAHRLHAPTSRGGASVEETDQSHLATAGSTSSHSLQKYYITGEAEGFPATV
Description: Binding affinity for human estrogen receptor alpha

Estrogen receptor beta = Estrogen receptor beta (Homo sapiens, UniProt Q92731)
Sequence of Estrogen receptor beta (Q92731 whole entry): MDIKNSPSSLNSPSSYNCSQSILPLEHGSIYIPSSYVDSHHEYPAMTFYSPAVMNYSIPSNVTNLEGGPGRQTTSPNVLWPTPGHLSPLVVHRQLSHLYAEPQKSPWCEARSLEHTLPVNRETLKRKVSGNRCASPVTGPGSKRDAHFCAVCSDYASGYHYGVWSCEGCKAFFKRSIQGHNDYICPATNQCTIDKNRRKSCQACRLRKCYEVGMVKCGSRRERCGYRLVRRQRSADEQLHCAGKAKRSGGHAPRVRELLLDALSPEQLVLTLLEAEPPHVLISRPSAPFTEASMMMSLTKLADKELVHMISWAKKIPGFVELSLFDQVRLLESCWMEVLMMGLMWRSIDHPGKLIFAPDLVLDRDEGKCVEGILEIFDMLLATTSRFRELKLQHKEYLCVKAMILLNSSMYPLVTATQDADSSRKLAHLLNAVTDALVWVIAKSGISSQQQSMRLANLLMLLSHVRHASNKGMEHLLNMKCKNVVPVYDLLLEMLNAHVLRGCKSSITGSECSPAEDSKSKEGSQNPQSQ
Description: Binding affinity for human estrogen receptor beta

SMILES	IC50 (MCF7)	IC50 (Estrogen receptor)	IC50 (Estrogen receptor beta)
Oc1ccc([C@H]2Sc3cc(O)ccc3O[C@H]2CCCN2CCCCC2)cc1	1.2 nM	0.7 nM	27 nM
Oc1ccc([C@H]2Sc3cc(O)ccc3O[C@H]2c2ccc(C3CCNCC3)cc2)cc1	1.9 nM	1.7 nM	115 nM
Oc1ccc([C@H]2Sc3cc(O)ccc3O[C@H]2c2ccc(N3CCCNCC3)cc2)cc1	28 nM	3.6 nM	161 nM
Oc1ccc([C@H]2Sc3cc(O)ccc3O[C@H]2c2ccc(CN3CCCCC3)cc2)cc1	–	155 nM	4370 nM
CN1CCN(c2ccc([C@@H]3Oc4ccc(O)cc4S[C@@H]3c3ccc(O)cc3)cc2)CC1	3.4 nM	1 nM	59 nM
Oc1ccc([C@H]2Sc3cc(O)ccc3O[C@H]2c2ccc(COCCN3CCCCC3)cc2)cc1	14.6 nM	2.3 nM	259 nM
CN1CCCN(c2ccc([C@@H]3Oc4ccc(O)cc4S[C@@H]3c3ccc(O)cc3)cc2)CC1	29 nM	3.6 nM	365 nM
CCN1CCN(c2ccc([C@@H]3Oc4ccc(O)cc4S[C@@H]3c3ccc(O)cc3)cc2)CC1	1.4 nM	1 nM	27 nM
Oc1ccc([C@H]2Sc3cc(O)ccc3O[C@H]2c2ccc(C3=CCNCC3)cc2)cc1	0.9 nM	1.4 nM	31 nM
Oc1ccc([C@H]2Sc3cc(O)ccc3O[C@H]2c2ccc(N3CCNCC3)cc2)cc1	2.8 nM	4.4 nM	186 nM
Oc1ccc([C@H]2Sc3cc(O)ccc3O[C@H]2c2ccc(CCCN3CCCCC3)cc2)cc1	6.7 nM	1.4 nM	186 nM
